Data: BindingDB's records for doi:10.7270/Q2319T8T (The Scripps Research Institute Molecular Screening Center, 2007)

Target: Steroidogenic factor 1 (Homo sapiens, UniProt Q13285)
Experiment: blockers of SF-1 LBD reporter transcription – cell-based, CHO-K1, Gal4-SF-1 LBD, luciferase luminescence, dose response (AID 600)
[1] = inactive by the depositor's call

Sequence of Steroidogenic factor 1 (Q13285 whole entry, the tested form may be a part): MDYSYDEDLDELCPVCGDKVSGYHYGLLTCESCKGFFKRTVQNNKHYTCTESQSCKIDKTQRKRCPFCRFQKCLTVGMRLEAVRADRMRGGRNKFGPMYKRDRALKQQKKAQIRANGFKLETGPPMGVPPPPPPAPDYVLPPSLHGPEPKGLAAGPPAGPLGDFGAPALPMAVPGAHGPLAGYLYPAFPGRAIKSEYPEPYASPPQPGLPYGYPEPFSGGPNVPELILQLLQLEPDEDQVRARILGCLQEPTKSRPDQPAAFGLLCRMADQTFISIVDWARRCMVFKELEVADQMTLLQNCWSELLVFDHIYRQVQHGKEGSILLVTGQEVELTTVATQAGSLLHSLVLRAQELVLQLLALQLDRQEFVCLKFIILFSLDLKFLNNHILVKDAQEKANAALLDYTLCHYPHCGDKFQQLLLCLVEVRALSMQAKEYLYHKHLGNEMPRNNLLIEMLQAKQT

SMILES | IC50 | IC50 [1]
CCn1c(C)nc2cc(-c3nc4n(n3)Cc3ccccc3-4)ccc21 [2-(1-ethyl-2-methyl-5-benzimidazolyl)-5H-[1,2,4]triazolo[5,1-a]isoindole] | < 0.00503 µM | –
Cc1csc(NC(=O)Cc2nn(C)c(=O)c3ccccc23)n1 [2-(3-methyl-4-oxidanylidene-phthalazin-1-yl)-N-(4-methyl-1,3-thiazol-2-yl)ethanamide] | – | 34.3 µM
C[C@@]1(CO)[C@H](O)CC[C@@]2(C)[C@H]1CC[C@H]1C[C@@H]3C[C@@]12CC[C@]3(O)CO [6,13-di(hydroxymethyl)-2,6-dimethyl-(1S,2S,5R,6R,7R,10S,12R,13R)-tetracyclo[10.3.1.01,10.02,7]hexadecane-5,13-diol (Aphidicolin)] | 0.55 µM | –
COc1cccc(NC(=O)CSc2nnc(-c3cc(C)n(-c4ccccc4)c3C)o2)c1 [2-[[5-(2,5-dimethyl-1-phenyl-3-pyrrolyl)-1,3,4-oxadiazol-2-yl]thio]-N-(3-methoxyphenyl)acetamide] | 3.4 µM | –
Cc1ccc(-c2nnc(Nc3ccccc3)o2)cc1 [5-(4-methylphenyl)-N-phenyl-1,3,4-oxadiazol-2-amine] | 5.17 µM | –
CCOc1ccc(-c2cc(CCCC(=O)NCCCOC)no2)cc1 [4-[5-(4-ethoxyphenyl)-1,2-oxazol-3-yl]-N-(3-methoxypropyl)butanamide] | 4.46 µM | –
N#CC(C#N)=c1ccc2c(c1)NC1(CCCCC1)N=2 [2-spiro[3H-benzimidazole-2,1'-cyclohexane]-5-ylidenepropanedinitrile] | – | 10.1 µM
CCOC(=O)C1CCN(c2ncnc3c2cnn3-c2ccc(Cl)cc2)CC1 [1-[1-(4-chlorophenyl)-4-pyrazolo[3,4-d]pyrimidinyl]-4-piperidinecarboxylic acid ethyl ester] | 3.42 µM | –
COc1ccc(-c2nc(-c3ccccc3)no2)c(OC)c1 [5-(2,4-dimethoxyphenyl)-3-phenyl-1,2,4-oxadiazole] | 3.52 µM | –
CC(=O)Nc1ccc(SCC(=O)c2cc(C)n(Cc3cccs3)c2C)cc1 [MLS000058142] | 4 µM | –
Cc1ccc(S(=O)(=O)Nc2cccc3ncccc23)s1 [5-methyl-N-quinolin-5-ylthiophene-2-sulfonamide] | 5.75 µM | –
N#C/C(=C\c1ccc(O)c(O)c1)C(=O)NCCCc1ccccc1 [MLS000069704] | – | 13.5 µM
Cn1nc(CC(=O)Nc2ccc3c(c2)OCCO3)c2ccccc2c1=O [MLS000047020] | – | 12.8 µM
Cc1ccc(C(C)C)c(OCCNc2nc3c(c(=O)n(C)c(=O)n3C)n2C)c1 [1,3,7-trimethyl-8-[2-(5-methyl-2-propan-2-yl-phenoxy)ethylamino]purine-2,6-dione] | > 99 µM | –
COC(=O)c1ccc(Oc2cc(C)nc(-n3nc(C)cc3C)n2)cc1 [4-[2-(3,5-dimethylpyrazol-1-yl)-6-methyl-pyrimidin-4-yl]oxybenzoic acid methyl ester] | 8.58 µM | –
CSC1=NC2=C(C(=O)CC(C)(C)C2)C(c2ccc(Cl)cc2)C1C#N (stereo not drawn) [SMR000102109] | 21.3 µM | –
Nc1nnnn1N=C/C(Br)=C/c1ccccc1 [1-[[(Z)-2-bromanyl-3-phenyl-prop-2-enylidene]amino]-1,2,3,4-tetrazol-5-amine] | 3.17 µM | –
COC(=O)C1C(=CN2CCCc3ccccc32)NC(=O)NC1c1ccc(F)cc1 (stereo not drawn) [6-(3,4-dihydro-2H-quinolin-1-ylmethyl)-4-(4-fluorophenyl)-2-keto-3,4-dihydro-1H-pyrimidine-5-carboxylic acid methyl ester] | 5.34 µM | –
COc1ccc(CCNc2ncnc3c2oc2ccccc23)cc1OC [MLS000041708] | 9.38 µM | –
Cc1ccc(Nc2cc(C)nn2-c2nc(C)cc(O)n2)cc1 [6-methyl-2-[3-methyl-5-(4-methylanilino)pyrazol-1-yl]-1H-pyrimidin-4-one] | 4.32 µM | –

SMILES | IC50 | IC50 [1]
Cc1oc(-c2ccc3c(c2)OCCO3)cc1C(=O)O [5-(2,3-dihydro-1,4-benzodioxin-6-yl)-2-methyl-3-furancarboxylic acid] | 5.55 µM | –
O=C(CSc1nnnn1-c1ccccc1)Nc1nsc(-c2ccc(Cl)cc2)n1 [MLS000085595] | 4.9 µM | –
Fc1ccc2[nH]c3c(N4CCN(Cc5ccc6c(c5)OCO6)CC4)ncnc3c2c1 [4-[4-(1,3-benzodioxol-5-ylmethyl)-1-piperazinyl]-8-fluoro-5H-pyrimido[5,4-b]indole] | 7.8 µM | –
CCOc1ccc(-c2nc(CSCC(=O)NCCN3CCOCC3)c(C)o2)cc1 [2-({[2-(4-ethoxyphenyl)-5-methyl-1,3-oxazol-4-yl]methyl}thio)-N-(2-morpholin-4-ylethyl)acetamide] | 4.36 µM | –
CC[C@H]1CN2CCc3cc(OC)c(OC)cc3[C@@H]2C[C@@H]1C[C@H]1NCCc2cc(OC)c(OC)cc21 | 0.202 µM | –
O=C(CSc1nnnn1C1CC2CCC1C2)Nc1ccnc2ccccc12 (stereo not drawn) [2-[(1-bicyclo[2.2.1]hept-2-yl-1H-tetrazol-5-yl)thio]-N-4-quinolinylacetamide] | 0.977 µM | –
Clc1ccc(-n2ncc3c(N4CCCCCC4)ncnc32)cc1 [4-(1-azepanyl)-1-(4-chlorophenyl)pyrazolo[3,4-d]pyrimidine] | 3.19 µM | –
CCOC(=O)CSc1nc2cc(C(=O)NCc3ccco3)ccc2c(=O)n1-c1ccc(F)cc1 [2-[[3-(4-fluorophenyl)-7-(2-furfurylcarbamoyl)-4-keto-quinazolin-2-yl]thio]acetic acid ethyl ester] | > 11 µM | –
Cc1oc2cc3c(C(=O)OCCN(C)C)c(C)oc3cc2c1C(=O)OCCN(C)C [2,6-Dimethyl-benzo[1,2-b;4,5-b']difuran-3,7-dicarboxylic acid bis-(2-dimethylamino-ethyl) ester] | 0.813 µM | –
O=S(=O)(NCc1cn2ccsc2n1)c1ccc(Oc2ccccc2)cc1 [MLS000094195] | – | 34.5 µM
c1ccc(-n2nnc3c(N4CCOCC4)ncnc32)cc1 [4-(3-phenyl-7-triazolo[4,5-d]pyrimidinyl)morpholine] | > 99 µM | –
Cc1ccc(-c2nc3nc4ccccc4nc3n2Cc2ccco2)cc1 [3-(2-furanylmethyl)-2-(4-methylphenyl)imidazo[4,5-b]quinoxaline] | 6.89 µM | –
CCc1ccc2oc(-c3ccc(N)cc3)nc2c1 [4-(5-ethyl-1,3-benzoxazol-2-yl)aniline] | > 3.67 µM | –
c1ccc(-c2cn3c4c(sc3n2)CCCC4)cc1 [2-phenyl-5,6,7,8-tetrahydroimidazo[2,1-b][1,3]benzothiazole] | 4.54 µM | –
CCN(CC)c1ccc2c(c1)OC(=N)C(C#N)C2c1cccnc1 (stereo not drawn) [2-amino-7-(diethylamino)-4-(3-pyridinyl)-4H-1-benzopyran-3-carbonitrile] | > 3.67 µM | –
CC(=O)c1sc(NC(=O)C2(F)C(F)(F)C(F)(F)C(F)(F)C(F)(F)C2(F)F)nc1C [MLS000040071] | – | 15.6 µM
COc1cccc(-c2nnc(NC(=O)c3ccc(S(=O)(=O)N4CC(C)OC(C)C4)cc3)o2)c1 (stereo not drawn) [4-(2,6-dimethylmorpholin-4-yl)sulfonyl-N-[5-(3-methoxyphenyl)-1,3,4-oxadiazol-2-yl]benzamide] | > 3.67 µM | –
COc1cc(C(=O)Oc2c(CN3CCOCC3)cc(Cl)c3cccnc23)cc(OC)c1OC [3,4,5-trimethoxybenzoic acid [5-chloro-7-(4-morpholinylmethyl)-8-quinolinyl] ester] | – | 12.3 µM
CN1/C(=C/C(=O)c2nc(S(C)(=O)=O)ncc2Cl)C(C)(C)c2ccccc21 | – | 15.5 µM
COc1cc(CC(NC(C)=O)C(=O)NC2CCN(c3nc(C)cc(C)c3C#N)CC2)cc(OC)c1 (stereo not drawn) [2-Acetylamino-N-(3'-cyano-4',6'-dimethyl-3,4,5,6-tetrahydro-2H-[1,2']bipyridinyl-4-yl)-3-(3,5-dimethoxy-phenyl)-propionamide] | > 33 µM | –

SMILES | IC50 | IC50 [1]
COc1cc2nc(S)n3nc(CCn4nc(C)cc4C)nc3c2cc1OC | 5.04 µM | –
CC1(C)CC(=O)C2=C(C1)Oc1nc3ccccc3cc1C2C(C#N)C#N (stereo not drawn) [2-(1-keto-3,3-dimethyl-4,12-dihydro-2H-chromeno[2,3-b]quinolin-12-yl)malononitrile] | 7.53 µM | –
COc1cccc(N2CCN(c3ncnc4c3[nH]c3ccccc34)CC2C)c1 (stereo not drawn) [4-[4-(3-methoxyphenyl)-3-methyl-1-piperazinyl]-5H-pyrimido[5,4-b]indole] | – | 28.6 µM
c1ccc2nc(-c3nc4ccccc4[nH]3)ccc2c1 [SMR000008748] | 2.38 µM | –
COc1ccc(C(=O)NC(=O)Nc2cc(C)ccn2)cc1 [4-methoxy-N-[(4-methyl-2-pyridyl)carbamoyl]benzamide] | > 1.22 µM | –
C/C(Cl)=C\Cn1c(NCCc2ccccc2)nc2c1c(=O)n(C)c(=O)n2C [SMR000044779] | > 11 µM | –
COc1ccc(-n2ncc3c(N4CCCCC4)ncnc32)cc1 [1-(4-methoxyphenyl)-4-(1-piperidinyl)pyrazolo[3,4-d]pyrimidine] | 1.77 µM | –
O=C(OC1CCOC1=O)c1ccc(-c2nc3ccccc3s2)s1 (stereo not drawn) [(2-oxidanylideneoxolan-3-yl) 5-(1,3-benzothiazol-2-yl)thiophene-2-carboxylate] | 5.75 µM | –
Cc1cc(C(=O)Nc2cccc(C(=O)O)c2)oc1C [3-[(4,5-dimethyl-2-furoyl)amino]benzoic acid] | 3.13 µM | –
CCCCOc1ccccc1NC(=O)Cn1c(-c2nonc2N)nc2ccccc21 [2-[2-(4-amino-1,2,5-oxadiazol-3-yl)-1-benzimidazolyl]-N-(2-butoxyphenyl)acetamide] | > 3.67 µM | –
COCCn1c(C)cc(C(=O)CSc2nnc(C)s2)c1C [1-[1-(2-methoxyethyl)-2,5-dimethyl-1H-pyrrol-3-yl]-2-[(5-methyl-1,3,4-thiadiazol-2-yl)thio]ethanone] | 5.45 µM | –
O=C(Nc1nnc(C2CC2)o1)c1ccc(S(=O)(=O)N2CCCc3ccccc32)cc1 [MLS000116109] | – | 13.7 µM
Cc1cc(NC(=O)c2ccc3c(c2)OCCO3)no1 [MLS000064124] | – | 13.1 µM
CCCCOC(=O)c1[nH]c2c(c1C)C(=O)CC(c1cc(OC)c(OC)c(OC)c1)C2 (stereo not drawn) | – | 16.9 µM
Cc1cnc(C(=O)Nc2cccc3cccnc23)cn1 [5-Methyl-pyrazine-2-carboxylic acid quinolin-8-ylamide] | 8.91 µM | –
CCCCOc1ccc(S(=O)(=O)Nc2cccnc2)cc1 [4-butoxy-N-(3-pyridinyl)benzenesulfonamide] | – | 25 µM
O=C(Nc1ccccc1)c1cccc(-c2nnc(-c3ccccc3)o2)c1 [MLS000100081] | 4.2 µM | –
COc1ccc(C=Nn2nnc3ccccc32)cc1 [MLS000043825] | > 3.67 µM | –
